# Measurements reported in patent US8815883B2, “Compounds and methods for inhibiting serotonin synthesis” (The Trustees of Columbia Unviersity in the City of New York, priority 2009, dated 2014).
# Entries after “also recorded” stand apart in the source; their conditions may differ. Structures can show the parent of a compound that is named as a salt.
# What was measured:
# [1] = target: rb 5-HT1B receptors (Oryctolagus cuniculus, UniProt P49144); details: British Journal of Pharmacology (1997) 120, 153; cited from earlier work
# rb 5-HT1B receptors, sequence (P49144 whole entry): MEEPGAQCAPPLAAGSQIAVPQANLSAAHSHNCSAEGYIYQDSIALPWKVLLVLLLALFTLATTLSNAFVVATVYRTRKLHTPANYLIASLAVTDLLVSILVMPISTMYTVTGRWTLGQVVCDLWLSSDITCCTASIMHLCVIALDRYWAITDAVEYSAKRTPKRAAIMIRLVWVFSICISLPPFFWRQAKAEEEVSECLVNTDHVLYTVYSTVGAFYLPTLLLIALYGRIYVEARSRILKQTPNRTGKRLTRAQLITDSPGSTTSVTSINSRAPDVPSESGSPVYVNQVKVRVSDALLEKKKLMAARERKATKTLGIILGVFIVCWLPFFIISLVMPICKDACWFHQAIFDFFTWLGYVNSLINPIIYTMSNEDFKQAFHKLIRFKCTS
# [2] = test system: primary osteoblasts; assay: Real-time PCR analysis of cyclin and osteoblast-specific gene expression in primary osteoblasts treated with serotonin; type: cell-based, mouse; details: serotonin 50 to 100 μM, 24 hr, vs vehicle
# Protocol: To test whether serotonin regulates the expression of cyclins in osteoblasts, a real-time PCR analysis of cyclin expression in primary osteoblasts treated with serotonin or vehicle was performed. […] In contrast, expression of Runx2, Osteocalcin and Type I collagen was not modified (FIG. 8B).
# Calvaria osteoblasts were extracted by triple collagenase/trypsine digestion from 4 day-old CD1 pups and differentiated with ascorbic acid as previously described (Ducy et al., 2000, Cell 100:197-207).
# (§1) Osteoblasts were treated in serum-free medium with vehicle or Serotonin (50 to 100 μM, Sigma) for 24 hr. Total RNA were extracted with Trizol (Invitrogen). cDNA were generated using the ABI Reverse transcriptase system and random hexanucleotide primers. Real-time PCR was performed using superarray primers on a Stratagene real time PCR cycler and Actin expression was used as endogenous control. Chromatin immunoprecipitation assays (ChIP) were performed by standard procedures using primary osteoblasts. Microarray analysis was performed as described previously (Glass et al., 2005, Dev. Cell 8:751-764).
# [3] = test system: Cyclin D1 mouse promoter; assay: ChIP analysis of CREB binding to the Cyclin D1 promoter in primary osteoblasts treated with serotonin; type: cell-based
# Protocol: (§2) Decreased expression of Cyclin D1 is a major feature of both Lrp5 deficiency and serotonin treatment of osteoblasts (FIGS. 1 and 8). One transcription factor that is known to modulate the expression of cyclin genes and is expressed in osteoblasts is CREB (Fu et al., 2005, Cell 122:803-815). Therefore, whether serotonin could decrease CREB activity in these cells was tested. […] Furthermore, a CREB binding site in the Cyclin D1 mouse promoter was identified and it was shown using ChIP assays that serotonin decreased binding of CREB to this promoter (FIG. 9B). These two observations raise the hypothesis that CREB could be mediating serotonin action on osteoblasts.
# as §1
# [4] = test system: CREB; assay: Western blot analysis of CREB phosphorylation in primary osteoblasts treated with serotonin; type: cell-based, mouse; details: serotonin 50 to 100 μM
# Protocol: as §2
# Osteoblasts were treated in serum-free medium with vehicle or Serotonin (50 to 100 μM, Sigma) for 24 hr. Lysates from primary osteoblasts or crushed frozen bones were prepared in RIPA buffer in the presence of protease and phosphatase inhibitors. Twenty to 60 μg of proteins were separated by SDS-PAGE in reducing conditions and transferred on nitrocellulose membrane using standard protocols. Membranes were incubated with primary antibodies including total or anti-Phospho CREB (Cell Signaling Technology).
# [5] = target: 5-HT1B receptor (Homo sapiens, UniProt P28222); details: selective 5-HT1B receptor antagonist; British Journal of Pharmacology (2003) 138, 71-80; cited from earlier work
# 5-HT1B receptor, sequence (P28222 whole entry): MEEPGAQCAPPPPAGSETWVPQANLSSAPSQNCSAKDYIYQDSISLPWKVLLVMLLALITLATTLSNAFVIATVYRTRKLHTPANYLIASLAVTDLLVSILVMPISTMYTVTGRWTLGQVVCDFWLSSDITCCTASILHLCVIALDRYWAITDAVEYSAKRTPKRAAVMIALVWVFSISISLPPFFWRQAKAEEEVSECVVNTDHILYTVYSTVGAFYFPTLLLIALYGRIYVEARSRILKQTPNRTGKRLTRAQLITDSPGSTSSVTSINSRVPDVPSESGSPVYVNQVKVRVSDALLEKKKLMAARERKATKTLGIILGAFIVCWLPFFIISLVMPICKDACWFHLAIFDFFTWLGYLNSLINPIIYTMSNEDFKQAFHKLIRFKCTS
# [6] = test system: Lrp5−/− mice; assay: pCPA treatment of WT and Lrp5−/− mice: bone histomorphometry, serum serotonin, gut TPH1 and brain TPH2 expression; type: in vivo; details: 300 mg/kg pCPA intraperitoneally three times per week, from 3 weeks to 12 weeks of age
# Protocol: Consistent with the conclusion that the increase in serum serotonin level is responsible fully or partly for the bone phenotype of the Lrp5−/− mice is the discovery that pCPA, a serotonin synthesis inhibitor (Eldridge et al., 1981, Ann. Rev. Physiol. 43:121-135), prevented the appearance of the Lrp5−/− bone phenotype by decreasing serotonin production. WT and Lrp5−/− mice were treated with 300 mg/kg pCPA intraperitoneally three times per week, from 3 weeks to 12 weeks of age (FIG. 7A) and the changes in serum serotonin levels, TPH1 expression in gut and TPH2 expression in brain stem were analyzed. Bone histomorphometry was also performed. […] This rescue of the Lrp5 −/− phenotype was achieved by normalization of the gut TPH1 mRNA and of serum serotonin levels (FIGS. 7C and 7D).
# Generation of Lrp5−/− (Kato et al., 2002, J. Cell Biol. 157:303-314) β-cateninfloxed/floxed (Glass et al., 2005, Dev. Cell 8:751-764), α1(I)collagen-cre transgenic (Dacquin et al., 2002, Dev. Dyn. 224:245-251) and Htt−/− (Ansorge et al., 2008, J. Neurosci. 28:199-207) mice were as described previously. Lrp5+/−;Htt+/− double heterozygous mice were generated by crossing Lrp5+/− and Htt+/− mice. Three week-old Wt or Lrp5−/− mice were administered pCPA on alternate days for 9 weeks by i.p. All animal protocols were approved by the Animal Care Committees of Columbia University.
# Static histomorphometry measurements were performed as previously described in accordance with standard nomenclature, using the Osteomeasure Analysis System (Osteometrics, Inc) (Ducy et al., 2000, Cell 100:197-207). Four to 9 animals were assigned per group.
# Serotonin serum levels were quantified using immunoassay kits from Fitzgerald (Serotonin) and serotonin levels in the different regions of the brain were quantified by HPLC method as described previously (Mann et al., 1992, Arch. Gen. Psychiatry 49:442-446).
smiles,measurement,setting,value
CSc1ccc2c(c1)C(N1CCN(C)CC1)Cc1ccccc1S2 (stereo not drawn) [methiothepin],mode of antagonism at rb 5-HT1B receptors,[1],"silent, competitive antagonists"
"NCCc1c[nH]c2ccc(O)cc12 [serotonin, 5-hydroxytryptamine]",expression of Cyclin D1,[2],decreased
same,expression of Cyclin D2,[2],decreased
same,expression of Osteocalcin,[2],not modified
same,expression of Runx2,[2],not modified
same,expression of Type I collagen,[2],not modified
same,binding of CREB to the Cyclin D1 promoter (ChIP),[3],decreased
same,CREB phosphorylation,[4],significantly decreased
"CN(C)CCCc1cc(C(=O)Nc2ccc(-c3ccncc3)cc2)ccc1O [GR 55562, 3-[3-(dimethylamino)propyl]-4-hydroxy-N-[4-(4-pyridinyl)phenyl]benzamide dihydrochloride]",Kb,[5],~100 nM
O=C(c1ccc(F)cc1)C1CCN(CCn2c(=O)[nH]c3ccccc3c2=O)CC1 [ketanserin],mode of antagonism at rb 5-HT1B receptors,[1],"silent, competitive antagonists"
"NC(Cc1ccc(Cl)cc1)C(=O)O (stereo not drawn) [pCPA, para-chlorophenylalanine]",gut TPH1 mRNA,[6]; Lrp5−/− mice,normalization
same,bone abnormalities (bone histomorphometry),"[6]; Lrp5−/− mice, 300 mg/kg",corrects bone abnormalities; also recorded: corrects their low bone phenotype; also recorded: corrected the bone abnormalities
same,serum serotonin levels,"[6]; Lrp5−/− mice, 300 mg/kg",normalizes; also recorded: normalization
same,bone mass,[6]; WT mice,without overtly affecting bone mass
same,Brain TPH2 mRNA levels,[6]; treated mice,not affected
